Data published in patent publication US20260014203A1, “USE OF COMPOSITION INCLUDING MESENCHYMAL STEM CELLS FOR ALLEVIATING MYELOFIBROSIS” (MEDICAL AND PHARMACEUTICAL INDUSTRY TECHNOLOGY AND …, priority 2022, published 2026).

Tests used:
IDO gene in UCMSCs = experiment: Priming of UCMSCs with IFN-γ in combination with a supplement, IDO gene mRNA by real-time PCR; type: cell-based, human; conditions: 250 U/mL of IFN-γ in combination with the supplement, 72 hours; compared with comparative group (IFN-γ only)
Experimental: In order to determine whether addition of a supplement, which is selected from one of vitamin, steroid, cytokine, double-stranded RNA, and histone deacetylase (HDAC) inhibitor, enhanced the effect of IFN-γ in the priming of UCMSCs, the following experiments were conducted.
In brief, UCMSCs culture as described in Item 2 of the General Experimental Materials were divided into 8 groups, namely, a normal control group (NCG), a comparative group (CG) and 6 experimental groups, i.e., experimental group 1 to experimental group 6 (EG1 to EG6), with the number of UCMSCs in each group being 5.8×10^5 cells. Next, the UCMSCs in each group were subjected to priming, in which the UCMSCs in the CG were treated with 250 U/mL of IFN-γ for 72 hours, the UCMSCs in a respective one of the EG1 to EG6 were treated with 250 U/mL of IFN-γ in combination with 1 μM of retinoic acid, 1 μg/mL of dexamethasone, 10 ng/mL of TNF-α, 25 μg/mL of polyinosinic acid-polycytidylic acid, 0.5 mM of valproic acid, and 1 μM of budesonide, respectively, for 72 hours, while the UCMSCs in the NCG were not subjected to any treatment and were left to stand for 72 hours.

[1] = tested on: indoleamine-pyrrole 2,3-dioxygenase (IDO)-expressing UCMSCs; experiment: Priming of UCMSCs with IFN-γ, percentage of IDO-expressing UCMSCs by flow cytometry; type: cell-based, human
Experimental: UCMSCs culture as described in Item 2 of the General Experimental Materials were divided into 6 groups, namely, a control group (CG), and 5 experimental groups, i.e., experimental group 1 to 5 (EG1 to EG5), with the number of UCMSCs in each group being 5.8×10^5 cells. Next, the UCMSCs in the EG1 to EG5 were subjected to priming by treating with different concentrations of IFN-γ, i.e., 50, 100, 200, 250 and 500 U/mL of IFN-γ, respectively, for 72 hours, while the UCMSCs in the CG were not subjected to any treatment. For identification of IDO-expressing UCMSCs, the cells in each group were stained with phycoerythrin-conjugated IDO monoclonal antibody (Manufacturer: Thermo Fisher Scientific; Catalogue no.: 12-9477-42) while phycoerythrin-conjugated mouse IgG1 kappa isotype control (Manufacturer: Thermo Fisher Scientific; Catalogue no.: 12-4714-82) served as the control antibody, followed by subjecting the stained cells to flow cytometry conducted using CytoFLEX Flow Cytometer (Beckman Coulter), so as to determine the percentage of IDO-expressing UCMSCs in each group.
In brief, the UCMSCs culture as described in Item 2 of the General Experimental Materials were divided into 9 groups, namely, three control groups, i.e., control groups 1 to 3 (CG1 to CG3), and 6 experimental groups, i.e., experimental group 1-1 (EG1-1), experimental group 1-2 (EG1-2), experimental group 2-1 (EG2-1), experimental group 2-2 (EG2-2), experimental group 3-1 (EG3-1) and experimental group 3-2 (EG3-2), with the number of UCMSCs in each group being 5.8×10^5 cells. Next, the UCMSCs in the EG1-1, EG2-1, and EG3-1 were subjected to priming by treating with 250 U/mL of IFN-γ for 24 hours, 48 hours, and 72 hours, respectively, the UCMSCs in EG1-2, EG2-2, and EG3-2 were treated with 500 U/mL of IFN-γ for 24 hours, 48 hours, and 72 hours, respectively, while the UCMSCs in the CG1, CG2 and CG3 were not subjected to any treatment and were left to stand for 24 hours, 48 hours, and 72 hours, respectively. […]

Compound | relative mRNA expression level of IDO gene (IDO gene in UCMSCs) | percentage of IDO-expressing UCMSCs ([1]; 50, 100, 200, 250 and 500 U/mL of IFN-γ, 72 hours, compared with control group, concentration dependent) | percentage of IDO-expressing UCMSCs ([1]; 250 or 500 U/mL of IFN-γ for 24, 48 or 72 hours, compared with the untreated control group of the same time) | percentage of IDO-expressing UCMSCs ([1]; 250 or 500 U/mL of IFN-γ, 72 hours compared with 48 hours and 24 hours)
TNF-α | higher | – | – | –
IFN-γ: cytokine used for priming of UCMSCs | – | higher | higher | higher
CCCC(CCC)C(=O)O [valproic acid] | higher | – | – | –
polyinosinic acid-polycytidylic acid | higher | – | – | –
